Measurements taken from US20160136123A1, “TREATMENT OF AUTOPHAGY-RELATED DISORDERS” (STC.UNM, priority 2013, published 2016).

Columns and labels:
[1] = tested on: HeLa cells stably expressing mRFP-GFP-LC3B; assay: TRIM family screen control: GFP-LC3B puncta area after pp242; assay type: cell-based, Human; conditions: pp242 for 2 h, versus vehicle
Source text: Referring to FIG. 1A/A HeLa cells stably expressing mRFP-GFP-LC3B were subjected to TRIM knockdowns, treated with pp242, and imaged to detect nuclear stain (blue) and GFP signal (green). Top, non-targeting siRNA-transfected cells treated with carrier (DMSO) or pp242. White lines, cell borders. Red, LC3B puncta borders. Bottom, representative images of cells subjected to knockdown of TRIM45 and TRIM2, both treated with pp242. (B) Measurement of average area of GFP-LC3B area per cell from cells treated as in (A) (data from multiple 96-well plates with identical siRNA arrangements represent means and ±SE).
Cells were exposed to virus at 4° C. for 1 hour to allow binding but not entry. […] Samples were prepared for analysis of p24, reverse transcriptase, or proviral DNA. […] HIV-1 RT was determined according to the manufacturer's protocol (Enz Chek, Invitrogen). HIV-1 proviral DNA was quantified as previously described (Campbell et al., 2004). […]
HeLa cells stably expressing mRFP-GFP-LC3B were cultured in 96-well plates containing siRNAs against 67 human TRIMs and transfection reagent (Dharmacon). […] Automated image collection of >500 cells (distributed over 49 or fewer fields per well per siRNA knockdown per plate) were machine-analyzed using preset scanning parameters and object mask definition (iDEV software). […] When results were expressed as puncta area per cell, the units corresponded to μm^2/cell.

[2] = tested on: 293T cells and HeLa cells; assay: TRIM5α overexpression: LC3-II abundance (bafilomycin A1 flux assay) and LC3 puncta by high content analysis; assay type: cell-based, Human; conditions: GFP-tagged protein overexpressed, compared with GFP alone; with or without bafilomycin A1
Source text: FIG. 2A/A illustrates mapping of the p62/Sequestosome 1 region interacting with RhTRIM5α. Schematic (left): domain organization of p62 and deletion/point mutation constructs employed to analyze interactions with RhTRIM5α (right panel). TR, TRIM5α and TRAF6 binding region; NLS, nuclear localization signal; NES, nuclear export signal; LIR, LC3-interacting region; KIR, KEAP1-interacting region. Analysis (right): Myc-RhTRIM5α was radiolabeled with [^35S] methionine by in vitro translation and analyzed by GST pulldown assays with GST-p62 fusion proteins. Top, autoradiogram. Bottom, Coomassie Brilliant Blue (CBB)-stained SDS-polyacrylamide gel with GST-p62 proteins. (B) Effects of TRIM5α knockdown in HeLa cells on GFP-LC3 puncta (area/cell) under basal (DMSO control) and autophagy-inducing (pp242) conditions. HuT5a, human TRIM5α; Scr, Scrambled control. […]
We first tested p62 and TRIM5α interaction (FIG. S2A) and co-localization (FIG. S2B), and mapped the TRIM5α-binding domain on p62 to the region demarcated by residues 170-256 (FIG. 2A). […] When TRIM5α was knocked down, fewer LC3 puncta were detected ([…]) and LC3-II yields (FIG. 2A/B,C) upon induction with pp242 were reduced. […] In these experiments, high content analysis was used to differentiate GFP-TRIM5α-transfected or GFP-transfected cells from untransfected cells based on their green fluorescence. […]

[3] = tested on: HeLa cells stably expressing mRFP-GFP-LC3; assay: High content imaging of LC3 puncta after oleic acid pretreatment; assay type: cell-based, Human; conditions: 500 μM BSA-oleic acid 20 h, then full medium or EBSS starvation 90 min
Experimental: Panals (A) and (B): HeLa cells stably expressing mRFP-GFP-LC3 were treated for 20 h with BSA alone (BSA) or with BSA-oleic acid (OA; 500 μM OA) and then starved in EBSS for 90 min (Starv) or incubated in full medium (Full). A, Visualization of lipid droplet accumulation. Cells were treated as in A and lipid droplets stained with Bodipy 493/503. B, High content image analysis. Program (iDev)-assigned masks: blue outline, valid primary objects (cells); green mask, GFP puncta. (C) number of GFP+ puncta per cell from experiments illustrated in A. (D) RFP+ puncta per cell from experiments illustrated in A. High content analysis data: means±s.e. (n=3, where n represents separate experiments; each experimental point in separate experiments contained >500 cells identified by the program as valid primary objects); *, p<0.05 (t-test). (E) HeLa cells were treated with 0, 100, 500 or 1000 μM oleic acid (OA) using BSA as a carrier (BSA-OA) for 20 h, followed by 90 min starvation in EBSS with or without Bafilomycin A1 (BafA1), and LC3-II/actin ratios determined by immunoblotting and densitometry. (F) HeLa cells were treated for 20 h with BSA alone or with BSA-OA (500 μM OA), followed by starvation in EBSS for 90 min with or without Bafilomycin A1 (BafA1) and LC3-II/actin ratios determined by immunoblotting and densitometry. Immunobloting data: means means±s.e., *, p<0.05 (t-test). […]

[4] = tested on: HeLa cells; assay: LC3-II conversion immunoblot (LC3-II/actin) with or without bafilomycin A1 after oleic acid pretreatment and starvation; assay type: cell-based, Human
Experimental: Panals (A) and (B): HeLa cells stably expressing mRFP-GFP-LC3 were treated for 20 h with BSA alone (BSA) or with BSA-oleic acid (OA; 500 μM OA) and then starved in EBSS for 90 min (Starv) or incubated in full medium (Full). A, Visualization of lipid droplet accumulation. Cells were treated as in A and lipid droplets stained with Bodipy 493/503. B, High content image analysis. Program (iDev)-assigned masks: blue outline, valid primary objects (cells); green mask, GFP puncta. (C) number of GFP+ puncta per cell from experiments illustrated in A. (D) RFP+ puncta per cell from experiments illustrated in A. High content analysis data: means±s.e. (n=3, where n represents separate experiments; each experimental point in separate experiments contained >500 cells identified by the program as valid primary objects); *, p<0.05 (t-test). (E) HeLa cells were treated with 0, 100, 500 or 1000 μM oleic acid (OA) using BSA as a carrier (BSA-OA) for 20 h, followed by 90 min starvation in EBSS with or without Bafilomycin A1 (BafA1), and LC3-II/actin ratios determined by immunoblotting and densitometry. (F) HeLa cells were treated for 20 h with BSA alone or with BSA-OA (500 μM OA), followed by starvation in EBSS for 90 min with or without Bafilomycin A1 (BafA1) and LC3-II/actin ratios determined by immunoblotting and densitometry. Immunobloting data: means means±s.e., *, p<0.05 (t-test).
Addition of oleic acid (OA) is commonly used to increase cellular LD content. […] The enhancement was detected at both autophagy initiation stage (FIG. 1C; GFP-LC3) and autophagosomal maturation (FIG. 1D; mRFP-GFP), as determined by the acidification-sensitive GFP and acidification-insenstive mRFP probes used to distinguish early autophagosomes and autolysosomes, respectively. […]
Antibodies against endogenous proteins LC3 (MBL), P62 (BD Transduction), Atg16L1 (Cosmo Bio) were used for indirect immunofluorescence analysis. […] SlideBook morphometric analysis software 5.0 (Intelligent Imaging Innovations) was used to quantify the colocalization between Atg16L1 or DAG and lipid droplets. […]

[5] = tested on: autophagic maturation; conditions: e.g. 1 mM, reference [27]; cited from earlier work

For `CC(C)n1nc(-c2cc3cc(O)ccc3[nH]2)c2c(N)ncnc21` [pp242], the “induction of GFP-LC3B puncta area” value [1] was 17 fold.
In the case of “C15A mutant of RhTRIIVI5α: catalytically inactive (E3 ligase) C15A mutant of rhesus TRIM5α”, the “effect of TRIM5α overexpression on autophagy (LC3-II, LC3 puncta)” value [2] is reported as “induced autophagy comparably to wt RhTRIM5α”.
With `CCCCCCCC/C=C\CCCCCCCC(=O)O` [OA, oleic acid] the “effect of increase in lipid droplets following OA pretreatment on autophagy (GFP+ and RFP+ LC3 puncta per cell)” value [3] was “enhanced basal and induced autophagy”, the “OA concentration optimal for enhancing starvation-induced autophagy (LC3-II/actin titration)” value ([4]; 0, 100, 500 or 1000 μM OA 20 h, 90 min starvation in EBSS with or without bafilomycin A1) was 500 µM and the “effect of OA pretreatment in the bafilomycin A1 inhibition assay (LC3-II/actin)” value ([4]; 500 μM BSA-OA 20 h, EBSS 90 min with or without bafilomycin A1) was “enhanced cellular capacity for initiation of autophagy upon starvation”. The “effect of 1 mM OA on starvation-induced autophagy (LC3-II/actin titration)” value ([4]; 1 mM OA 20 h, 90 min starvation in EBSS) was “either a plateau or potentially inhibitory effects on autophagy” and the “effect of high concentrations of OA on autophagic maturation” value [5] was “inhibitory to autophagic maturation”.
